Assay results published in patent publication US20250101488A1, “RAPID DIAGNOSTIC DRY REAGENT TEST FOR ANTIBIOTIC RESISTANCE, AND METHODS OF USE AND METHODS OF MAKING THEREOF” (BioAmp Diagnostics, Inc., priority 2022, published 2025).
Entries after “also recorded” stand apart in the source; their conditions may differ. Where two headings read alike, the source gives them in different places.

Key:
[1] = cited from earlier work
[2] = test system: cefotaxime (CTX) non-susceptible Gram-negative bacteria (GNB); assay: DETECT assay with 96-bacterial isolate panel, ROC curve analysis against cefotaxime (CTX) phenotype; assay type: cell-based; conditions: 2.5×10^6 CFU/mL, DETECT score A405 nm 30 min minus 0 min; for Sensitivity (ROC Curve Analyzed with CTX): 96-bacterial isolate panel (47 CTX susceptible, 49 CTX non-susceptible); for AUC (95% CI) (ROC Curve Analyzed with CTX) / Specificity (ROC Curve Analyzed with CTX): 96-bacterial isolate panel
From the text: A pool of 5 probe hits were each evaluated using a 96-bacterial isolate panel. In these studies, the 96-bacterial isolate panel was comprised of 47 cefotaxime (CTX) susceptible and 49 CTX non-susceptible, Gram-negative bacteria (GNB). As described above, CTX is a surrogate to detect ceftriaxone susceptibility and, therefore, was applied as the reference phenotype to group true positive, CTX-non-susceptible (include both CTX resistant and intermediate), and true negative, CTX-susceptible. Whole cell suspensions were prepared to yield an experimental concentration of 2.5×10^6 CFU/mL. In a 96-well plate, wells were prepared with all DETECT reagents, except for the targeting probe under investigation. Bacterial suspensions were transferred to the prepared wells of the plate and an initial timepoint was recorded (0 minutes) upon addition of a stock solution of a given probe (Sub-1, (7R)-7-(2-(1H-tetrazol-1-yl)acetamido)-8-oxo-3-((phenylthio)methyl)-5-thia-1-azabicyclo[4.2.0]oct-2-ene-2-carboxylic acid (BAD-5835), (7R)-7-(3-methylisoxazole-5-carboxamido)-8-oxo-3-((phenylthio)methyl)-5-thia-1-azabicyclo[4.2.0]oct-2-ene-2-carboxylic acid (BAD-1468), (7R)-8-oxo-3-((phenylthio)methyl)-7-(2-(pyridin-3-yl)acetamido)-5-thia-1-azabicyclo[4.2.0]oct-2-ene-2-carboxylic acid (BAD-5627), and (7R)-8-oxo-3-((phenylthio)methyl)-7-((S)-piperidine-3-carboxamido)-5-thia-1-azabicyclo[4.2.0]oct-2-ene-2-carboxylic acid (BAD-3462), (7R)-8-oxo-7-(2-phenoxyacetamido)-3-((phenylthio)methyl)-5-thia-1-azabicyclo[4.2.0]oct-2-ene-2-carboxylic acid (BAD-7465)). The absorbance of the wells was collected at 405 nm at 0 and 30 minutes, using a simple benchtop plate reader. The “DETECT Score” values were then calculated for each sample by subtracting the 405 nm absorbance recorded at the 0-minute timepoint from the 30-minute timepoint. Therefore, each sample was identified to have a unique DETECT score that was then can be group into positive and negative phenotype subgroups for threshold value determination via ROC curve analysis.

[3] = Aqueous stability: non-selective hydrolysis of the probe, k(hydro); assay type: physicochemical; conditions: for Stability k(hydro): rate of non-selective hydrolysis of the probe and turn on of the DETECT system in the absence of its biomarker target
Procedure: In order to find use in rapid diagnostic tests, ESBL-targeting probes that had at least the following favorable criteria were evaluated: • 1. Aqueous stability—measured through non-selective hydrolysis • a. Favorable criteria: k(hydro)<0.0062 mM/min • 2. Activity towards target β-lactamase target CTX-M-15—measured using recombinant β-lactamase • a. Favorable criteria: k(β-lactamase)>0.0568 mM/min • 3. Activity towards off-target lower generation β-lactamase (prioritizing the most common, TEM-1b) • a. Favorable criteria: k(TEM-1b)<0.02135 mM/min

papain = target: T1, papain (Carica papaya, UniProt P00784); assay: Dry reagent test strip, Study 1: papain activation by cysteine, reflectance; conditions: coating and drying at 37° C.; judged by reflectance of control strip
T1 sequence (P00784 134-345): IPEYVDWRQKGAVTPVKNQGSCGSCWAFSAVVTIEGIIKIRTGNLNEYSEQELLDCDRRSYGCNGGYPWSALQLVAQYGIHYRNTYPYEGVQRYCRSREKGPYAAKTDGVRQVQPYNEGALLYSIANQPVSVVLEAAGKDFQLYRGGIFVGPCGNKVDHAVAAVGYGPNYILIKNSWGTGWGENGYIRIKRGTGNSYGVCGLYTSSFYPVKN
Procedure: The second coating consisted of adding the water-soluble components (buffer salts and papain) and dried a second time in the oven at 37° C. […] Multiple formulation combinations of the DETECT components were examined to determine optimal change of reflectance over time.
Excess solution is removed with glass rods and the paper placed in the oven and dried for 60 minutes at 37° C. In a dry room (relative humidity<20%), the dried filter paper is adhered onto a polyester film support. […] The order of applying the DETECT components typically includes adding the methanol soluble components first followed by the water-soluble components.
Papain activity by cysteine activation was assessed by using two test strips where one received 100 μM cysteine (sample) while the other received buffer (control).
In study 1, different formulations (i.e., different amounts of the papain and BAPA) were used to prepare strips to obtain the highest possible reflectance change when the yellow-colored signal is generated from activating papain (se FIG. 8) and measured with a Konica Minolta reflectance spectrophotometer. […]
Study 1. […] The difference of percent reflectance (% Rscore) between sample and control is determined by subtracting the percent reflectance of the control strip from the sample strip for each time point to yield an increasing % Rscore over time (see FIG. 9A-B).

recombinant CTX-M-15 = recombinant CTX-M-15 (Escherichia coli, UniProt Q9EXV5); assay: Dry reagent test strip, Study 2: activation by recombinant CTX-M-15, reflectance; conditions: 1 or 4 nM CTX-M-15, read every 4 minutes for 20 minutes
recombinant CTX-M-15, sequence (Q9EXV5 entry or part of it): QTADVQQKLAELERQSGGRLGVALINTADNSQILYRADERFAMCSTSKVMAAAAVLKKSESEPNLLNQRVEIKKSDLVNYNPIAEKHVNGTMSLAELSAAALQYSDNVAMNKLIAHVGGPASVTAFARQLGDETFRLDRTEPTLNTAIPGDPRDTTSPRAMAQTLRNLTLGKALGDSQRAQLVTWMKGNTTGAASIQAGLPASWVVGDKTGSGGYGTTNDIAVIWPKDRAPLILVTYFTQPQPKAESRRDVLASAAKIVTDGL
Procedure: If the small molecule targeting probe was not severely affected by the fabrication process, then in the presence of CTX-M-15, it will be hydrolyzed and liberate the triggering unit to initiate the signaling cascade thus providing the yellow colorimetric response.
The sample test strip received 1 or 4 nM of β-lactamase, while the control received buffer and the reflectance was monitored every 4 minutes for 20 minutes (see FIG. 8B).

Nc1ccc([N+](=O)[O-])cc1 [p-nitroaniline]
extinction coefficient ([1]; absorbance wavelength of 405 nm): 9,767 M-1 cm^−1

O=C(COc1ccccc1)N[C@@H]1C(=O)N2C(C(=O)O)=C(CSc3ccccc3)CSC12 (stereo partly drawn) [BAD-7465, (7R)-8-oxo-7-(2-phenoxyacetamido)-3-((phenylthio)methyl)-5-thia-1-azabicyclo[4.2.0]oct-2-ene-2-carboxylic acid]
Sensitivity (ROC Curve Analyzed with CTX) [2]: 0.7143
AUC (95% CI) (ROC Curve Analyzed with CTX) [2]: 0.7717
Specificity (ROC Curve Analyzed with CTX) [2]: 0.8077
Stability k(hydro) [3]: 0.00161 M/min

O=C(Cc1ccccc1)N[C@@H]1C(=O)N2C(C(=O)O)=C(CSc3ccccc3)CSC12 (stereo partly drawn) [Sub-1, (7R)-8-oxo-7-(2-phenylacetamido)-3-((phenylthio)methyl)-5-thia-1-azabicyclo[4.2.0]oct-2-ene-2-carboxylic acid, reference compound]
Sensitivity (ROC Curve Analyzed with CTX) [2]: 0.9206
AUC (95% CI) (ROC Curve Analyzed with CTX) [2]: 0.7717
Specificity (ROC Curve Analyzed with CTX) [2]: 0.8125
stability and promiscuity characteristics for rapidly detecting ceftriaxone non-susceptibility directly from urine [3]: not adequate
Stability k(hydro) [3]: 0.0062 M/min

O=c1ccc2nc3ccc(O)cc3oc-2c1 [resorufin]
extinction coefficient ([1]; absorbance wavelength of 570 nm): 56,000 M^1 cm^−1
fluorescent quantum yield (ϕ) ([1]; in water): 0.74

O=C(Cc1cccnc1)N[C@@H]1C(=O)N2C(C(=O)O)=C(CSc3ccccc3)CSC12 (stereo partly drawn) [BAD-5627, (7R)-8-oxo-3-((phenylthio)methyl)-7-(2-(pyridin-3-yl)acetamido)-5-thia-1-azabicyclo[4.2.0]oct-2-ene-2-carboxylic acid]
Sensitivity (ROC Curve Analyzed with CTX) [2]: 0.9275
AUC (95% CI) (ROC Curve Analyzed with CTX) [2]: 0.9614
Specificity (ROC Curve Analyzed with CTX) [2]: 0.9259
Stability k(hydro) [3]: 0.00352 M/min

Cc1cc(C(=O)N[C@@H]2C(=O)N3C(C(=O)O)=C(CSc4ccccc4)CSC23)on1 (stereo partly drawn) [BAD-1468, (7R)-7-(3-methylisoxazole-5-carboxamido)-8-oxo-3-((phenylthio)methyl)-5-thia-1-azabicyclo[4.2.0]oct-2-ene-2-carboxylic acid]
Sensitivity (ROC Curve Analyzed with CTX) [2]: 0.8406
AUC (95% CI) (ROC Curve Analyzed with CTX) [2]: 0.8846
Specificity (ROC Curve Analyzed with CTX) [2]: 0.8519
Stability k(hydro) [3]: 0.00198 M/min

O=C(Cn1cnnn1)N[C@@H]1C(=O)N2C(C(=O)O)=C(CSc3ccccc3)CSC12 (stereo partly drawn) [BAD-5835, (7R)-7-(2-(1H-tetrazol-1-yl)acetamido)-8-oxo-3-((phenylthio)methyl)-5-thia-1-azabicyclo[4.2.0]oct-2-ene-2-carboxylic acid]
stability of the probe to the test strip fabrication process (papain): did NOT decompose; also recorded: did not show any sign of degradation
detection of recombinant CTX-M-15 on test strip (change in reflectance) (recombinant CTX-M-15): retained its ability to detect the presence of CTX-M-15; also recorded: significant change in reflectance
Sensitivity (ROC Curve Analyzed with CTX) [2]: 0.8823
AUC (95% CI) (ROC Curve Analyzed with CTX) [2]: 0.9586
Specificity (ROC Curve Analyzed with CTX) [2]: 0.9259
Stability k(hydro) [3]: 0.0044 M/min

O=C(O)C1=C(CSc2ccccc2)CSC2[C@H](NC(=O)[C@H]3CCCNC3)C(=O)N12 (stereo partly drawn) [BAD-3462, (7R)-8-oxo-3-((phenylthio)methyl)-7-((S)-piperidine-3-carboxamido)-5-thia-1-azabicyclo[4.2.0]oct-2-ene-2-carboxylic acid]
Sensitivity (ROC Curve Analyzed with CTX) [2]: 0.8116
AUC (95% CI) (ROC Curve Analyzed with CTX) [2]: 0.8717
Specificity (ROC Curve Analyzed with CTX) [2]: 0.8519
Stability k(hydro) [3]: 0.00558 M/min
